Format in all cases: physicochemical
A short description of data set [1]: Antioxidant activity assessed as OH-induced DNA oxidation at 150 uM by TBARS method.
Data set [2] can be described thus: Antioxidant activity assessed as protection against Cu2+/GSH-induced DNA oxidation at 150 uM up to 180 mins by TBARS method. Particulars: 3 h; call rule not given here.
A short description of data set [3]: Antioxidant activity assessed as inhibition time period for protection against AAPH-induced DNA oxidation at 37 degC by TBARS method.

Structures are written as SMILES.

On to `O=C(O)c1cc2ccc(O)cc2oc1=O`, for which the Activity in data set [1] came out at 78.8%. In data set [2], the “inhibition (INH)” value is recorded as “Active”. In data set [3], the Time is listed as 0.82 min.

As for `O=C(O)c1cc2ccccc2oc1=O` [COUMARIN-3-CARBOXYLIC ACID], in data set [1], the Activity was 82.6%. Also, the “inhibition (INH)” value in data set [2] is given as “Active”.

As to `O=C(NCCc1ccccc1)c1cc2ccccc2oc1=O`, the Activity in data set [1] came to 72.9%. In data set [2], the “inhibition (INH)” value is recorded as “Active”.

`O=C(NCCc1ccc(O)cc1)c1cc2ccccc2oc1=O`: the Activity in data set [1] is on record as 76.4%. Also, the “inhibition (INH)” value in data set [2] is listed as “Not Active”. Further, the Time in data set [3] was found to be 1.28 min.

Regarding `COc1cc2cc(C(=O)NCCc3ccccc3)c(=O)oc2cc1O`, the Activity in data set [1] is recorded as 73.6%. Also, the “inhibition (INH)” value in data set [2] is listed as “Not Active”. For the same molecule, the Time in data set [3] was 1.61 min.

Consider `O=C(NCCc1ccc(O)cc1)c1cc2ccc(O)cc2oc1=O`, for which the Activity in data set [1] is listed as 71.5%. In addition, in data set [2], the “inhibition (INH)” value was “Not Active”.

For `COc1cc2cc(C(=O)NCCc3ccc(O)cc3)c(=O)oc2cc1O`, the Activity in data set [1] is reported as 68.1%. Moreover, in data set [2], the “inhibition (INH)” value is “Not Active”. Also, the Time in data set [3] is listed as 7.43 min.

As to `O=C(NCCc1ccccc1)c1cc2ccc(O)cc2oc1=O`, in data set [1], the Activity came out at 75.3%. The “inhibition (INH)” value in data set [2] was “Not Active”.

For `COc1cc2cc(C(=O)O)c(=O)oc2cc1O`, the Activity in data set [1] is 86.5%. In addition, in data set [2], the “inhibition (INH)” value was “Active”. Also, the Time in data set [3] stood at 2.92 min.

The values above are taken from ChEMBL document CHEMBL3352361, “Design and synthesis of coumarin-3-acylamino derivatives to scavenge radicals and to protect DNA” (Eur J Med Chem, 2014).
